The fraction unbound is the share of the substance not bound to proteins or other matrix. A word on the Kb: it is the affinity of an antagonist, worked out from how it opposes an agonist.

Read-outs that look alike come from different tables or passages of the source.

A short description of data set [1]: In vivo determination of plasma and brain concentrations and unbound brain-to-plasma partition coefficient (Kp,uu,brain) in rats. The note with it: for concentration at 1 h / concentration at 3 h: male, Sprague-Dawley, oral, 10 mg/kg. Here is the method:
In Vivo Determination of Unbound Brain-to-Plasma Partition Coefficient (Kp,uu,brain) in Rats
Unbound brain-to-plasma partition coefficient (Kp,uu,brain) is one of the key pharmacokinetic parameter for evaluating a compound's ability to cross the blood-brain barrier (BBB) (Hammarlund-Udenaes, M.; Friden, M.; Syvanen, S.; Gupta, A. On the Rate and Extent of Drug Delivery to the Brain. Pharm. Res. 2008, 25 (8), 1737-1750).
Animal studies are performed under protocols approved by the Covance Institutional Animal Care and Use Committee. Male Sprague-Dawley rats weighing 250-350 g are obtained from Harlan Sprague Dawley Inc. (Indianapolis, Ind.). Animals have access to food and water ad libitum before and during the study.
Animals each receive 10 mg/kg of the CGRP receptor antagonist compound of Example 1, administered orally in 10 ml/kg of hydroxyethylcellulose 1% w/v/polysorbate 80 0.25% v/v/Antifoam 1510-US 0.05% v/v/in purified water (probe sonicated).
Three animals per time point are used. […] The blood samples are treated with K3-EDTA anticoagulant, and plasma is obtained by centrifugation at 1600 g for 10 minutes. The brain samples are weighed and homogenized, without perfusion. All samples are stored at −70° C. until analysis by LC-MS/MS to determine the concentration of the compound of Example 1 in plasma and brain at each time point.
Kp,uu,brain is calculated for each time point from the expression below where individual components are derived from a combination of in vitro and in vivo measurements carried out as described above:
[formula] where Ctotal,brain, Cu,brain, Ctotal,plasma and Cu,plasma are total and unbound brain and plasma concentrations, and fu,brain and fu,plasma are fractions unbound in brain and plasma, respectively.

A short description of data set [2]: Rat plasma and brain homogenate protein binding by equilibrium dialysis. In kind it is in vitro ADME. As to the method:
Determination of Plasma and Brain Protein Binding:
Rat plasma and brain homogenate protein in vitro binding is determined using equilibrium dialysis, as described elsewhere [Zamek-Gliszczynski et al., J Pharm Sci, 101:1932-1940, 2012]. The results are reported as fraction unbound in plasma (fu,plasma) and brain (fu,brain), which are then utilized to calculate Kp,uu,brain, as described in Table 1. Rat fu,plasma and fu,brain of the compound of Example 1 are determined to be 0.071 and 0.043, respectively.
In general terms: In equilibrium dialysis only unbound substance equilibrates across the membrane.

Data set [3] concerns the target T1, ABCB1, human P-glycoprotein (Pgp) (Homo sapiens, UniProt P08183).
T1 construct: host or cells: MDCKII cells
In words: In vitro determination of efflux by Pgp; bi-directional transport across MDCKII cells. The class given is in vitro ADME. The conditions noted are these: MDCKII cells expressing human ABCB1, 5 μM substrate, 60 min, B-A/A-B Papp ratios with/without inhibitor. As to the method: In Vitro Determination of Efflux by ABCB1, Human P-Glycoprotein (Pgp)
MDCKII cells stably expressing human wild-type ABCB1 (Pgp) are obtained from the Netherlands Cancer Institute (Amsterdam, The Netherlands). MDCK cells are maintained as described previously (Desai et al., Mol Pharm 10:1249-1261, 2013).
The assay is essentially conducted as described previously (Desai et al., Mol Pharm 10:1249-1261, 2013). Transport is measured in both directions across uninhibited and inhibited cell monolayers using a substrate concentration of 5 μM diluted from a 10 mM DMSO stock solution (final DMSO concentration of 0.05%) and a single 60-min time interval. […] The apparent permeability coefficients (Papp) are estimated as the slope of the mass transported per 60 min relative to the total recovered mass. The basal-to-apical (B-A)/apical-to-basal (A-B) Papp ratios are calculated in the absence or presence of inhibitor in each cell line for net efflux ratio (NER). The NER of the compound of Example 1 for efflux by Pgp is determined to be 1.7.

Data set [4] concerns the target T2, hCGRP (human calcitonin gene-related peptide) receptor (Homo sapiens, UniProt O60894+Q16602).
T2 construct: Cultured SK-N-MC neuroblastoma cells that endogenously express the hCGRP receptor (ATCC); host or cells: SK-N-MC neuroblastoma cells
In words: Inhibition of cAMP production by CGRP receptor antagonists in SK-N-MC cells (HTRF). In kind it is cell-based. The note with it: 0.8 nM human CGRP challenge, agonist-corrected IC50, mean±SEM, n=11, read-out: Kb measured at human CGRP. The source says:
Inhibition of cAMP Production by CGRP Receptor Antagonists
The hCGRP (human calcitonin gene-related peptide) receptor is functionally coupled to the Gas proteins. Stimulation of hCGRP results in an increased synthesis of intracellular cAMP and can be blocked by the addition of receptor antagonists. Receptor activity is thus a reflection of the amount of cAMP present within cells which can be detected using standard in vitro technology.
Cultured SK-N-MC neuroblastoma cells that endogenously express the hCGRP receptor (ATCC) are grown in Eagle's Minimum essential medium (HYCLONE™) supplemented with 10% heat-inactivated Fetal bovine serum (FBS; GIBCO®), Non-Essential Amino Acids (GIBCO®), 1 mM sodium pyruvate, 2 mM L-glutamine, 100 U/mL of penicillin, and 10 μg/mL of streptomycin to about 70% confluency. […]
The amount of intracellular cAMP is quantitated using HTRF technology (Cisbio) as per vendor instructions. […] The HTRF signal is immediately detected using an ENVISION® plate reader (Perkin-Elmer) to calculate the ratio of fluorescence at […]. […] Relative EC50 values are calculated from the top-bottom range of the concentration response curve using a four-parameter logistic curve fitting program (ACTIVITYBASE® v5.3.1.22 or GENEDATA SCREENER® v12.0.4), and Kb values are estimated as agonist-corrected IC50 values using the equation: Kb=(IC50)/[1+([Agonist]/EC50)]. […]
Background: Cyclic AMP is a second messenger, typically raised through Gs and lowered through Gi signalling.

T2 sequence (Q16602 23-461): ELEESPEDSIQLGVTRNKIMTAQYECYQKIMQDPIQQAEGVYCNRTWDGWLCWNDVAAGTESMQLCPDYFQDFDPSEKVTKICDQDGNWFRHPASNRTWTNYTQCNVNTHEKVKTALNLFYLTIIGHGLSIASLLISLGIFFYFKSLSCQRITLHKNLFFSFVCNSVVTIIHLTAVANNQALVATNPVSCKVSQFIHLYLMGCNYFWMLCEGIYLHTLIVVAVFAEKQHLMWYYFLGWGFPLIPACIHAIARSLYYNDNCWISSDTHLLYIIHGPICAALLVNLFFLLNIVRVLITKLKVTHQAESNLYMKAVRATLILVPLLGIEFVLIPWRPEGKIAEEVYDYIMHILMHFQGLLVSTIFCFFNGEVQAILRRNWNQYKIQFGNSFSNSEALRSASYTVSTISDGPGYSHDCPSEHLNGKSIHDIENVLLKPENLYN
T2 sequence (O60894 27-148): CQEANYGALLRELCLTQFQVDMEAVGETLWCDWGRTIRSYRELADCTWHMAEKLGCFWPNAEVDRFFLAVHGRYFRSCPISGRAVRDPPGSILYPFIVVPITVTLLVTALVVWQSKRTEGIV
T1 sequence (P08183 whole entry): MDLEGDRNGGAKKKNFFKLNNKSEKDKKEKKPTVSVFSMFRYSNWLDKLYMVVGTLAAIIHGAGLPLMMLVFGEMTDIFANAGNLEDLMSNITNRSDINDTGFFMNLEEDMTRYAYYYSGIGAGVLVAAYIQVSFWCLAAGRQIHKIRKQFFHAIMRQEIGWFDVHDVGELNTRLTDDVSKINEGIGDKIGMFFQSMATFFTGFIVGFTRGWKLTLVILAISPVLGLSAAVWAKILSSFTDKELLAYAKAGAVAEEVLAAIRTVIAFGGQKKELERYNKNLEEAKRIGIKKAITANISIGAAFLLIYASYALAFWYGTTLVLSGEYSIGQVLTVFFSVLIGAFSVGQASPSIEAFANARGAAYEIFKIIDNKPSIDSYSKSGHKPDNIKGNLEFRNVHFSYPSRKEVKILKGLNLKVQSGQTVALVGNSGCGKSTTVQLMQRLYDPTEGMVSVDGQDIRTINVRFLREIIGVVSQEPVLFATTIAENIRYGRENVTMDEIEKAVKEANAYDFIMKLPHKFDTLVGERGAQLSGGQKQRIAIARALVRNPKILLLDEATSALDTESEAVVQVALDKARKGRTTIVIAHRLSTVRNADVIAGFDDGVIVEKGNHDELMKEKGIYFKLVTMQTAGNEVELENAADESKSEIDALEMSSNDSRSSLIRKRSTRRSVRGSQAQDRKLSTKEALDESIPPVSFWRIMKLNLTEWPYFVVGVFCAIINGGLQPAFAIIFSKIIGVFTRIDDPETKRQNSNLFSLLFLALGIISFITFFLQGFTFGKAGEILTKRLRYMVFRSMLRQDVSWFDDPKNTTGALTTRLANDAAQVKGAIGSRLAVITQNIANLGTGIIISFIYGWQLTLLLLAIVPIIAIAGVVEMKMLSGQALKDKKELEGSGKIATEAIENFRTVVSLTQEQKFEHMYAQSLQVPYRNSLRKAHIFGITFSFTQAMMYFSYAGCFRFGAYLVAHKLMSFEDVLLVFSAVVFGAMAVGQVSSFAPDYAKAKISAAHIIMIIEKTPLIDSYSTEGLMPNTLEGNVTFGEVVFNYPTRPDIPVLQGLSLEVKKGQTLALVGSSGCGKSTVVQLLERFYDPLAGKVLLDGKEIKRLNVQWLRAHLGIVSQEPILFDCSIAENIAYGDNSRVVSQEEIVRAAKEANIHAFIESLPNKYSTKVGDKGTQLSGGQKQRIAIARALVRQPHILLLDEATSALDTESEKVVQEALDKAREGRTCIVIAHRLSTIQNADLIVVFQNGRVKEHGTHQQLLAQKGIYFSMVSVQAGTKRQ

Turning to `Cc1cc(OCc2ccc([C@@H](C)[C@]3(C)CC(=O)NC3=O)cc2)cc(C2CC2)n1` [Example 1, (3S)-3-[(1R)-1-[4-[(2-cyclopropyl-6-methyl-4-pyridyl)oxymethyl]phenyl]ethyl]-3-methyl-pyrrolidine-2,5-dione], the “Unbound brain conc. (Cu,brain)” value in data set [1] (1.0 hr post 10 mg/kg oral dose, male Sprague-Dawley rats, using rat fu,brain 0.043, mean ± SD) turned out to be 41 ± 15 nM; in data set [1] (3.0 hr post 10 mg/kg oral dose, male Sprague-Dawley rats, using rat fu,brain 0.043, mean ± SD) it was 22 ± 5 nM. The concentration at 1 h in data set [1] (rat, brain, 1.0 hr post 10 mg/kg oral dose, mean ± SD, read-out: Total brain conc. (Ctotal,brain)) amounted to 962 ± 341 nM; in data set [1] (rat, brain, 1.0 hr post 10 mg/kg oral dose, using rat fu,brain 0.043, mean ± SD, read-out: Unbound brain conc. (Cu,brain)) it was 41 ± 15 nM; in data set [1] (rat, plasma, 1.0 hr post 10 mg/kg oral dose, mean ± SD, read-out: Total plasma conc. (Ctotal,plasma)) it was 655 ± 183 nM; in data set [1] (rat, plasma, 1.0 hr post 10 mg/kg oral dose, using rat fu,plasma 0.071, mean ± SD, read-out: Unbound plasma conc. (Cu,plasma)), 47 ± 13 nM. Moreover, the concentration at 3 h in data set [1] (rat, brain, 3.0 hr post 10 mg/kg oral dose, mean ± SD, read-out: Total brain conc. (Ctotal,brain)) came to 515 ± 111 nM; in data set [1] (rat, brain, 3.0 hr post 10 mg/kg oral dose, using rat fu,brain 0.043, mean ± SD, read-out: Unbound brain conc. (Cu,brain)), 22 ± 5 nM; in data set [1] (rat, plasma, 3.0 hr post 10 mg/kg oral dose, mean ± SD, read-out: Total plasma conc. (Ctotal,plasma)) it was 368 ± 127 nM; in data set [1] (rat, plasma, 3.0 hr post 10 mg/kg oral dose, using rat fu,plasma 0.071, mean ± SD, read-out: Unbound plasma conc. (Cu,plasma)), 26 ± 9 nM. For the same compound, in data set [1] (rat, brain/plasma, 1.0 hr post 10 mg/kg oral dose, male Sprague-Dawley rats, mean ± SD), the Kp uu at 1 h came out at 0.89 ± 0.17. For the same compound, the Kp uu at 3 h in data set [1] (rat, brain/plasma, 3.0 hr post 10 mg/kg oral dose, male Sprague-Dawley rats, mean ± SD) is 0.93 ± 0.43. Further, the fraction unbound in brain (fu,brain) in data set [2] (rat brain homogenate) turned out to be 0.043. Moreover, the fraction unbound in data set [2] (rat plasma, read-out: fraction unbound in plasma (fu,plasma)) is 0.071. Besides, the “net efflux ratio (NER) for efflux by Pgp” value in data set [3] was 1.7. For the same compound, in data set [4], the Kb worked out at 0.57 ± 0.25 nM.

Values taken from patent publication US10336726B2, “3-methyl-pyrrolidine-2,5-dione derivatives useful as CGRP receptor antagonists” (Eli Lilly and Company, priority 2017, dated 2019).
